Source: US9492468B2, “Methods and compositions for treatment of acute heart failure” (PERICOR THERAPEUTICS, INC., priority 2008, dated 2016)

Columns and labels:
[1] = system: NT-ProBNP; assay: Plasma NT-proBNP, 6 hours infusion study; format: in vivo, dog; conditions: HF dogs n=6; for Plasma NT-ProBNP: iv 10 μg/kg/min constant infusion
Experimental: (§1) Six heart failure dogs described in Example 1 were used. Studies using active drug and placebo were performed in each dog in random order a minimum of one week apart. After baseline hemodynamic, angiographic and echocardiographic measurements, GP-531 tartrate or placebo was administered as a continuous constant intravenous infusion for 6 hours. The dose of GP-531 tartrate was 10 μg/kg/min. Complete hemodynamic, angiographic and echocardiographic measurements were made during baseline, and at 1, 2, 3, 4, 5 and 6 hours after initiating drug infusion. In addition, myocardial oxygen consumption (MVO2) was measured at baseline and 4 and 6 hours after initiating drug or saline infusion. LV pressure-volume relationships (P-V Loops) were also measured at baseline and at 6 hours after initiating drug or saline infusion to assess load independent contractility and relaxation. Venous blood samples were obtained at baseline and hourly thereafter. Blood samples (at least […]) were centrifuged at 3000 rpm for 10 minutes and plasma withdrawn and placed in cryostorage tubes and stored upright at −20° C. until needed. Venous blood samples were used to evaluate plasma levels of troponin-I and plasma levels of n-terminal pro-brain natriuretic peptide (NT-proBNP).
(§2) Plasma biomarkers were measured in all dogs at all study time points. Troponin I (TnI) was determined in plasma based on the principle of the double antibody sandwich enzyme-linked immunosorbent assay (ELISA) (Hirano, T., et al, Immunol Today 1990, 11:443-449) and NT-pro-BNP based on competitive ELISA (Bonow, R. O. Circulation 1996, 93:1946-1950). Both biomarkers were assayed using commercially available assay kits. Kits for NT-proBNP and TnI were purchased from ALPCO Diagnostics, Salem, N.H. Using standard curves and software, the concentration of each biomarker was expressed as ng/ml for TnI and fmol/ml for NT-proBNP.

[2] = system: Troponin-I; assay: Plasma troponin-I, 6 hours infusion study; format: in vivo, dog; conditions: HF dogs n=6; for Plasma TnI: iv 10 μg/kg/min constant infusion
Experimental: as §1, §2

[3] = Octanol:water partition coefficient; format: physicochemical; conditions: read-out: Octanol: water partition coefficient (log P)
Source text: Administering a better absorbed more lipophilic prodrug, which is subsequently hydrolysed to GP531, achieves an increase in the systemic availability of GP531.

[4] = target: T1, A1 receptors (Homo sapiens, UniProt P30542); assay: Ligand status at adenosine A1 receptor; format: binding
T1 sequence (P30542 1-326): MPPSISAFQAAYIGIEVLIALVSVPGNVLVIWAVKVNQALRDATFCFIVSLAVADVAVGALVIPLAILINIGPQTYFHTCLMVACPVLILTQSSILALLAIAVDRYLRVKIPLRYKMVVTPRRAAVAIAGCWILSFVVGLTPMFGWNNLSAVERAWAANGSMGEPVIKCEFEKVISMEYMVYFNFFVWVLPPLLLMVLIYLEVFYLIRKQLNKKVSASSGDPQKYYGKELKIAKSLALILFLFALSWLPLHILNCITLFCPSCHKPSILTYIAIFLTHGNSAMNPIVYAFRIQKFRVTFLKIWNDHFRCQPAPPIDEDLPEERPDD

[5] = system: A2 receptors; assay: Ligand status at adenosine A2 receptor; format: binding
[6] = target: T2, A3 receptors (Homo sapiens, UniProt P0DMS8); assay: Ligand status at adenosine A3 receptor; format: binding
T2 sequence (P0DMS8 1-318): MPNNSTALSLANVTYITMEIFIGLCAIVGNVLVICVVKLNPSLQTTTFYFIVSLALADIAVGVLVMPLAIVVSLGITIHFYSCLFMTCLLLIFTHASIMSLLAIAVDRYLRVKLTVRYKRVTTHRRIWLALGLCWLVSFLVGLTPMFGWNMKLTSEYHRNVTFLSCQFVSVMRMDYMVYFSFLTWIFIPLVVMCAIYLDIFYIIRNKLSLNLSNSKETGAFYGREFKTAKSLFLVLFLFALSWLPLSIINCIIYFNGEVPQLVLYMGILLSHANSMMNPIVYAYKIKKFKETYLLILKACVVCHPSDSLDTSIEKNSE

[7] = target: T3, NBTI-sensitive adenosine transporter (Homo sapiens, UniProt Q99808); assay: Ligand status at adenosine transporter; format: binding
T3 sequence (Q99808 1-456): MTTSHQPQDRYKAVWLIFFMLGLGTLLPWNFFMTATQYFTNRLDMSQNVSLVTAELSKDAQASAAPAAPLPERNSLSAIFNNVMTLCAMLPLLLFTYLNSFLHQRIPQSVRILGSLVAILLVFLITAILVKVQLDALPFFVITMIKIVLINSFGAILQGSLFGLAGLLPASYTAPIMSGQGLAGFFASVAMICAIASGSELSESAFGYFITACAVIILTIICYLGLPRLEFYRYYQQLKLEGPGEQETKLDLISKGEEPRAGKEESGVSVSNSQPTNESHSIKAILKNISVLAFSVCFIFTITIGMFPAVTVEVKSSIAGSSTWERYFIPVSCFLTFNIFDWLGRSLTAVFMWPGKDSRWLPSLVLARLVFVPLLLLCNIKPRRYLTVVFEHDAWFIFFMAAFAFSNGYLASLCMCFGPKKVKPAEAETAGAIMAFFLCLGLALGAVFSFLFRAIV

[8] = in man; cited from earlier work
[9] = previous studies; cited from earlier work

NC(=O)c1ncn(C2OC(CNCc3ccccc3)C(O)C2O)c1N [GP-531, 5-amino-1-β-D-(5-benzylamino-5-deoxy-1-β-D-ribofuranosyl)imidazole-4 carboxamide]
Plasma NT-ProBNP ([1]; 1 h): 140 ± 13 fmol/mL
Plasma NT-ProBNP ([1]; 2 h): 131 ± 11 fmol/mL
Plasma NT-ProBNP ([1]; 3 h): 127 ± 12 fmol/mL
Plasma NT-ProBNP ([1]; 4 h): 134 ± 11 fmol/mL
Plasma NT-ProBNP ([1]; 5 h): 130 ± 10 fmol/mL
Plasma NT-ProBNP ([1]; 6 h): 122 ± 10 fmol/mL
Effect on plasma NT-proBNP ([1]; iv 10 μg/kg/min for 6 h): significantly reduced
Plasma TnI ([2]; 1 h): 0.57 ± 0.02 pg/mL
Plasma TnI ([2]; 2 h): 0.58 ± 0.02 pg/mL
Plasma TnI ([2]; 3 h): 0.38 ± 0.03 pg/mL
Plasma TnI ([2]; 4 h): 0.43 ± 0.03 pg/mL
Plasma TnI ([2]; 5 h): 0.41 ± 0.03 pg/mL
Plasma TnI ([2]; 6 h): 0.42 ± 0.06 pg/mL
Effect on plasma troponin-I ([2]; iv 10 μg/kg/min for 6 h): significantly reduced
logP [3]: -0.91
Ligand for A1 receptors [4]: has not been shown to be a ligand
Ligand for A2 receptors [5]: has not been shown to be a ligand
Ligand for A3 receptors [6]: has not been shown to be a ligand
Ligand for NBTI-sensitive adenosine transporter [7]: has not been shown to be a ligand
Oral bioavailability [8]: ~10%
Metabolism [9]: not metabolized
Route of clearance [9]: cleared almost entirely intact in urine
